Columns and labels:
[1] = Apparent permeability from apical to basolateral side in human Caco2 cells at 2 uM after 2 hrs by LC-MS/MS analysis; type: ADME, cell-based; conditions: caco-2, 2 h
[2] = Apparent permeability from basolateral to apical side in human Caco2 cells at 2 uM after 2 hrs by LC-MS/MS analysis; type: ADME, cell-based; conditions: caco-2, 2 h

Compound: OC12CC3CC(C1)CC(NCc1cc(C4CC4)on1)(C3)C2
- Papp [1]: 27.57 ×10⁻⁶ cm/s
- Papp [2]: 28.33 ×10⁻⁶ cm/s

Reference: ChEMBL document CHEMBL4024798
